Measurements from PubChem BioAssay (NCI).
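Assay format: 96-well plates, 48-hour exposure. TGI is the concentration that stops growth completely.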

What was measured:
Experiment in all cases: growth of human tumour cells (NCI), 48 h
786-0 renal = system: 786-0 renal
A498 renal = system: A498 renal
A549 NSCLC = system: A549 NSCLC
ACHN renal = system: ACHN renal
CAKI-1 renal = system: CAKI-1 renal
CCRF-CEM leukemia = system: CCRF-CEM leukemia
COLO 205 colon = system: COLO 205 colon
DLD-1 colon = system: DLD-1 colon
DMS 114 small cell lung = system: DMS 114 small cell lung
DMS 273 small cell lung = system: DMS 273 small cell lung
EKVX NSCLC = system: EKVX NSCLC
HCC-2998 colon = system: HCC-2998 colon
HCT-116 colon = system: HCT-116 colon
HCT-15 colon = system: HCT-15 colon
HL-60(TB) leukemia = system: HL-60(TB) leukemia
HOP-62 NSCLC = system: HOP-62 NSCLC
HOP-92 NSCLC = system: HOP-92 NSCLC
HT29 colon = system: HT29 colon
IGROV1 ovarian = system: IGROV1 ovarian
K-562 leukemia = system: K-562 leukemia
KM12 colon = system: KM12 colon
KM20L2 colon = system: KM20L2 colon
LOX IMVI melanoma = system: LOX IMVI melanoma
LXFL 529 NSCLC = system: LXFL 529 NSCLC
M14 melanoma = system: M14 melanoma
M19-MEL melanoma = system: M19-MEL melanoma
MOLT-4 leukemia = system: MOLT-4 leukemia
NCI-H226 lung = system: NCI-H226 lung
NCI-H23 lung = system: NCI-H23 lung
NCI-H460 lung = system: NCI-H460 lung
NCI-H522 lung = system: NCI-H522 lung
OVCAR-4 ovarian = system: OVCAR-4 ovarian
OVCAR-5 ovarian = system: OVCAR-5 ovarian
OVCAR-8 ovarian = system: OVCAR-8 ovarian
RPMI-8226 leukemia = system: RPMI-8226 leukemia
SF-268 CNS = system: SF-268 CNS
SF-295 CNS = system: SF-295 CNS
SF-539 CNS = system: SF-539 CNS
SK-MEL-2 melanoma = system: SK-MEL-2 melanoma
SK-MEL-5 melanoma = system: SK-MEL-5 melanoma
SK-OV-3 ovarian = system: SK-OV-3 ovarian
SN12C renal = system: SN12C renal
SNB-19 CNS = system: SNB-19 CNS
SNB-75 CNS = system: SNB-75 CNS
SNB-78 CNS = system: SNB-78 CNS
SR leukemia = system: SR leukemia
SW-620 colon = system: SW-620 colon
TK-10 renal = system: TK-10 renal
U251 CNS = system: U251 CNS
UACC-257 melanoma = system: UACC-257 melanoma
UACC-62 melanoma = system: UACC-62 melanoma
UO-31 renal = system: UO-31 renal
XF 498 CNS = system: XF 498 CNS
MALME-3M melanoma = system: MALME-3M melanoma
OVCAR-3 ovarian = system: OVCAR-3 ovarian
RXF 393 renal = system: RXF 393 renal
SK-MEL-28 melanoma = system: SK-MEL-28 melanoma

Measured: TGI

C=CCN1/C(=C2\SC(=S)N(c3ccc(C)cc3)C2=O)Sc2c1ncn(C)c2=O
not listed: MALME-3M melanoma | OVCAR-3 ovarian | RXF 393 renal | SK-MEL-28 melanoma
> 100 µM: all other assays above

CCOC(=O)C1=C(C)N(NC(N)=O)C2(N)N(NC(N)=O)C(C)=C(C(=O)OCC)C12C(=O)OCC (stereo not drawn)
not listed: CCRF-CEM leukemia | COLO 205 colon | HL-60(TB) leukemia | HOP-92 NSCLC | NCI-H23 lung | SNB-78 CNS | TK-10 renal
> 100 µM: all other assays above
